One assay deals with NCI-H838. The assay is described as follows: Cell survival assay (SRB), NCI-H838. Format: cell-based. Particulars: Homo sapiens, 72 h; NCI-H838, NSCLC; 3 days, SRB staining. As to the method: (§1) 2.2. Cell Survival Assay: Standard Pharmacological Test Procedure. […] Compounds are incubated with cells for 3 days.
A general note: The SRB assay estimates cell density from bound dye.

The subject of the next assay is KB-PTX-15+099. Nature of the assay: Cell survival assay, KB-PTX-15+099 (paclitaxel-resistant, non-MDR). In kind it is cell-based, human. The conditions noted are these: for IC50: Homo sapiens.
Another assay concerns KB-V1 (MDR1++). The assay is described as follows: Cell survival assay (SRB), KB-V1 (MDR1++). The conditions noted are these: for IC50: Homo sapiens.
For the next assay, the system named is HCT-15 tumor. Nature of the assay: Growth of tumors in nude mice, HCT-15 xenograft. Format: in vivo. Particulars: paclitaxel 60 mg/kg IV, days 1,5,9. The source says: 2.4. Growth of Tumors in Nude Mice.
For another assay, the system named is tumor cell lines. Nature of the assay: cells. Format: cell-based. The source says: (§2) Cells lines with previously known mechanisms of resistance. […] Res. 8: 207-218,1996); KB-3-1 (parental derived from an epidermoid carcinoma), KB-8.5, KB-V1 (Akiyama S-I, Fojo A, Hanover J A, Pastan I, Gottesman M M. Isolation and genetic characterization of human KB cell lines resistant to multiple drugs. Somatic Cell Mol. Gen., 11: 117-126,1985; Shen D-W, Cardarelli C, Hwang J, Cornwell M, Richert N, Ishii S, Pastan I, Gottesman MM. […] J. Biol. Chem., 261: 7762-7770, 1986); and HL-60 (parental derived from human leukemia) and HL60/AR (McGrath T., Center M. S. Adriamycin resistance in HL60 cells in the absence of detectable P-glycoprotein. Biochem. Res. Commun., 145:1171-1176,1987); A549 and A549.EpoB40 (He L., Yang C.-P.H., Horwitz S. B. Mutations in p-tubulin map to domains involved in regulation of microtubule stability in epothilone-resistant cell lines. Molecular Cancer Therapeutics. 1: 3-10, 2001). HCT-15 human colon carcinoma and DLD-1 human colon carcinoma are obtained from American Tissue Culture Collection. The MX-1W carcinoma is a Wyeth variant orginally obtained as MX-1 breast carcinoma from the National Cancer Institute. Cell lines selected for resistance to Representative Example 129. KB-3-1 cells are selected for resistance to Example 129 by chronically exposing cells to increasing concentrations of Example 129.
(§3) 2.2. Cell Survival Assay: Standard Pharmacological Test Procedure. The concentration of candidate inhibitor required to inhibit 50% of cell growth (IC50) is done according to previously reported methods. […] Compounds are serially diluted into media as 2× stocks and 100 μl added to cells in duplicate. Compounds are incubated with cells for 3 days. At the end of the incubation period the sulforhodamine B (SRB) assay, which measures protein content as an assessment of cell survival, is performed as described previously (Skehan P, Storeng R, Scudiero D, Monks A, McMahon J, Vistica D, Warren J T, Bokesch H, Kenney S, Boyd MR. New calorimetric cytotoxicity assay for anticancer-drug screening. J Natl Cancer Inst 1990 Jul 4;82(13):1107-12) with some modification as follows. For KB-3-1 cells with 20% FCS, media is gently decanted and replaced with 200 μl of serum-free media mixed with cold 50% TCA for a final concentration of 10% TCA. The plates are incubated for 1 hr at 4° C., followed by washing 5 times in cold distilled water, then air dried overnight. The fixed cells are stained for 10 min with 80 μl of 0.04% SRB solution prepared in 1% glacial acetic acid. Stain is discarded and plates washed 5 times in 1% glacial acetic acid, then air-dried until completely dry. Stained cell product is dissolved in 150 μl of 10 mM Trizma Base and placed on a shaker for 20 minutes until fully dissolved. Absorbance is read on a Victor V multi-label plate reader (Perkin Elmer, Gaithersburg, Md.).

A further assay has as its system S1. The assay is described as follows: Cell survival assay (SRB), S1. In kind it is cell-based. Particulars: Homo sapiens.
Description: as §2, §3

The test system of a further assay is Capan-1. The assay is described as follows: Cell survival assay (SRB), Capan-1. The conditions noted are these: Homo sapiens. Format: cell-based. As to the method: as §1
Assay [1] is described as follows: Mitotic arrest and apoptosis. Format: cell-based. Particulars: at 24 hr; followed by apoptosis (48 hr). On the procedure: d) induces mitotic arrest (3-10 nM at 24 hr) followed by apoptosis (48 hr),
For another assay, the system named is MAP-associated tubulin. The assay is described as follows: Polymerization of MAP-associated tubulin, cell-free spectrophotometric assay. Format: biochemical.
In another assay the test system is DU145. Nature of the assay: Cell survival assay (SRB), DU145. Particulars: Homo sapiens, DU-145, 72 h; DU145, prostate; 3 days, SRB staining. Format: cell-based. On the procedure:
as §1

Another assay deals with CX-1. Nature of the assay: Cell survival assay (SRB), CX-1. Format: cell-based. The conditions noted are these: Homo sapiens, 72 h; CX-1, colon; 3 days, SRB staining. On the procedure:
as §1

Another assay relates to cellular microtubules. Nature of the assay: Cellular microtubules by immunofluorescence microscopy. Format: cell-based.
For a further assay, the system named is SKBR3. Nature of the assay: Cell survival assay (SRB), SKBR3. Format: cell-based. The conditions noted are these: Homo sapiens, SK-BR-3, 72 h; SKBR3, breast; 3 days, SRB staining. As to the method: as §1
A further assay relates to MCF7. Nature of the assay: Cell survival assay (SRB), MCF7. Format: cell-based. The conditions noted are these: Homo sapiens, MCF7, 72 h. On the procedure:
as §1

Another assay has as its system MDA-MB-435. The assay is described as follows: Cell survival assay (SRB), MDA-MB-435. In kind it is cell-based. The conditions noted are these: Homo sapiens, 72 h; MDA-MB-435, breast; 3 days, SRB staining. As to the method:
as §1

Setting [2] is: HL60/AR (MRP1) or S1-M1-3.2 (MXR).

Where two headings read alike, the source gives them in different places.

As to `CC(=O)O[C@H]1C(=O)[C@@]2(C)[C@H]([C@H](OC(=O)c3ccccc3)[C@]3(O)C[C@H](OC(=O)[C@H](O)[C@@H](NC(=O)c4ccccc4)c4ccccc4)C(C)=C1C3(C)C)[C@]1(OC(C)=O)CO[C@@H]1C[C@@H]2O` [paclitaxel, reference compound], the IC50 was 6.3 ± 0.6 nM in the assay with NCI-H838; 57.8 ± 9.6 nM in the assay with KB-PTX-15+099 (KB-PTX-15+099, Table 6, read-out: KB-PTX-15+099 IC50); above 3000 nM with KB-V1 (MDR1++) (72 h, KB-V1, 3 days, SRB, vehicle (DMSO), no MDR-1 inhibitor, mean of two experiments); 15 nM in the assay with KB-V1 (MDR1++) (72 h, read-out: IC50 + 5.0 uM MDR-1 inhibitor, KB-V1, 3 days, SRB, + 5.0 uM MDR-1 inhibitor (heptanenitrile), mean of two experiments); 5480 ± 2780 nM in the assay with KB-V1 (MDR1++) (read-out: KB-V1 (MDR1++) IC50, nM (N), KB-V1, high MDR1 expression, Table 3); 80.2 nM in the assay with tumor cell lines (34 tumor cell lines (Example 129); N=31 cell lines (paclitaxel); read-out: mean IC50). The IC50 is 9 nM in the assay on tumor cell lines (34 tumor cell lines (Example 129); N=31 cell lines (paclitaxel); read-out: median IC50); 1.8 to 1590 nM in the assay with tumor cell lines (34 tumor cell lines (Example 129); N=31 cell lines (paclitaxel); read-out: range of IC50); 80.2 nM in the assay with tumor cell lines (72 h, average over the panel of tumor cell lines of Table 1; 3 days; read-out: AVERAGE IC50); 15 to 438 nM in the assay with tumor cell lines (MX-1W, NCI-H1299, DLD-1, HCT-15; read-out: IC50 in cell lines expressing moderate to very high MDR1); 3.9 to 8.8 nM with tumor cell lines (NCI-H838, A549, HT-29, HCT-116, KB-3-1; read-out: IC50 in cell lines with undetectable or low level MDR1); 92 ± 100 nM in the assay with S1 (72 h, S1, colon, 3 days, SRB staining, read-out: IC50). For the same compound, the IC50 was 92 ± 100 nM with S1 (S1 parental, Table 5, read-out: S1 IC50, nM (N)) and 4 nM in the assay with Capan-1 (72 h, Capan-1, pancreatic, 3 days, SRB staining, read-out: IC50). In addition, in the assay with KB-PTX-15+099 (vs KB-3-1), the “resistance of KB-PTX-15+099 cells” value worked out at 21 fold. In the assay on HCT-15 tumor, the “% T/C on day 9” value is reported as 114%. Besides, the “% T/C on day 13” value in the assay on HCT-15 tumor worked out at 106%. Moreover, in the assay on HCT-15 tumor, the “% T/C on day 17” value amounted to 123%. The “% T/C on day 21” value in the assay with HCT-15 tumor was 110%. In addition, the “resistance detected in cells over-expressing MRP1 or MXR” value in the assay with tumor cell lines (setting [2]) is “no resistance”.

Turning to `CN[C@H](C(=O)N[C@H](C(=O)N(C)[C@H](/C=C(\C)C(=O)O)C(C)C)C(C)(C)C)C(C)(C)c1ccccc1` [Example 129, N,β,β-trimethyl-L-phenylalanyl-N^1-[(1S,2E)-3-carboxy-1-isopropylbut-2-enyl]-N^1,3-dimethyl-L-valinamide], the “concentration that induces mitotic arrest” value in [1] lay in the range of 3 to 10 nM. For the same compound, the IC50 in the assay with KB-PTX-15+099 (read-out: KB-PTX-15+099 IC50 (nM)) came out at 0.182 ± 0.028 nM; with KB-V1 (MDR1++) (72 h), 57 nM; in the assay with KB-V1 (MDR1++) (72 h, read-out: IC50 + 5.0 uM MDR-1 inhibitor) it was 1.3 nM; in the assay on KB-V1 (MDR1++) (read-out: KB-V1 (MDR1++) IC50, nM (N)) it was 77.4 nM; in the assay on DU145, 2 nM; with tumor cell lines (72 h, read-out: AVERAGE IC50 (nM), average over the panel of tumor cell lines of Table 1; 3 days), 2.1 ± 1.7 nM. Besides, the IC50 in the assay on tumor cell lines (read-out: IC50 in cell lines expressing moderate to very high MDR1, MX-1W, NCI-H1299, DLD-1, HCT-15) is 1.1 to 6.8 nM; with tumor cell lines (read-out: IC50 in cell lines with undetectable or low level MDR1, NCI-H838, A549, HT-29, HCT-116, KB-3-1) it was 0.7 to 1.6 nM; in the assay with tumor cell lines (read-out: mean IC50, 34 tumor cell lines (Example 129); N=31 cell lines (paclitaxel)), 2.1 ± 1.7 nM; in the assay on tumor cell lines (read-out: median IC50, 34 tumor cell lines (Example 129); N=31 cell lines (paclitaxel)), 1.7 nM; in the assay on tumor cell lines (read-out: range of IC50, 34 tumor cell lines (Example 129); N=31 cell lines (paclitaxel)), 0.2 to 7.3 nM; in the assay with tumor cell lines (read-out: range of IC50; 34 tumor cell lines (Example 129); N=31 cell lines (paclitaxel)) it was 0.2 to 7 nM. The IC50 came to 2.3 nM in the assay with CX-1; 2.3 nM in the assay on SKBR3; 7.3 ± 2.3 nM in the assay on MCF7; 3.7 ± 2 nM in the assay with S1 (72 h); 3.7 ± 2 nM in the assay on S1 (read-out: S1 IC50, nM (N)); 0.5 nM in the assay with MDA-MB-435. The midpoint of inhibition with Capan-1 (CAPAN-1, 72 h), the IC50, lay at 1.4 nM. The “Average Relative Resistance (RR)” value with KB-PTX-15+099 (IC50 KB-PTX-15+099 / IC50 KB-3-1, less than 1 = increased sensitivity) is given as “(0.30)”. Moreover, in the assay on KB-PTX-15+099 (vs KB-3-1), the “increased sensitivity of KB-PTX-15+099 cells” value turned out to be 3.4 fold. Besides, the “RR, relative resistance” value in the assay with KB-V1 (MDR1++) is recorded as 81. The “Ratio KBV1/KB” value with KB-V1 (MDR1++) is given as 80.6. Also, the “resistance of KB-V1 cells” value with KB-V1 (MDR1++) was determined as 81 fold. For the same compound, the “polymerization of MAP-associated tubulin” value in the assay on MAP-associated tubulin is recorded as “inhibitor of polymerization”. Besides, the “resistance detected in cells over-expressing MRP1 or MXR” value in the assay on tumor cell lines (setting [2]) is on record as “no resistance”. The “effect on cellular microtubules” value with cellular microtubules is reported as “depolymerizes cellular microtubules”.

The IC50 is the concentration needed to halve the response being measured.

Values taken from patent US20040121965A1, “Method of treating resistant tumors” (Wyeth Holdings Corporation, priority 2002, published 2004).
